In patent publication US20030171218A1, “Substituted 3-heteroaryl(amino- or oxy)pyrrolidin-2-ones, their preparation and use as herbicides or plant growth regulators” (priority 2001, published 2003):

Assays:
[1] = tested on: weed plants such as Digitaria sanguinalis, Echinochloa crus-galli, Setaria faberi, Setaria viridis, Sorghum halepense, Abutilon theophrasti, Amaranthum …; assay: Pre-emergence effect on weeds (greenhouse pot test); format: in vivo, monocotyledonous and dicotyledonous weed plants; details: application rate of 1 kg or less of active substance per hectare; scored visually after 3 to 4 weeks by comparison with untreated controls
Summary of the method: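 Weed seeds or rhizome pieces sown in sandy loam and covered; compounds, formulated as wettable powders or emulsion concentrates, sprayed onto the soil surface as aqueous suspensions/emulsions at 600 to 800 l water/ha in various dosages. Greenhouse growth; visual scoring of plant damage/emergence versus untreated controls after 3 to 4 weeks.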

[2] = tested on: harmful plants such as Digitaria sanguinalis, Echinochloa crus-galli, Setaria faberi, Setaria viridis, Sorghum halepense, Abutilon theophrasti, Amaranthum …; assay: Post-emergence effect on weeds (greenhouse pot test); format: in vivo, monocotyledonous and dicotyledonous weeds; details: application rate of 1 kg and less of active substance per hectare; treated at three-leaf stage; scored visually after about 3 to 4 weeks by comparison with untreated controls
Summary of the method: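 Greenhouse-grown weeds in sandy loam, sprayed at three-leaf stage (three weeks after sowing) with wettable powder or emulsion concentrate formulations at various dosages in 600 to 800 l water/ha. Effect scored visually against untreated controls after about 3 to 4 weeks.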

melting point	Structure (SMILES)	herbicidal activity pre-emergence [1]	herbicidal activity post-emergence [2]
210 °C	CC(C)c1nc(N)nc(NC2CCN(c3ccccc3)C2=O)n1 (centres unmarked) [Example A20]	very good herbicidal activity	very good herbicidal activity
77 °C	CC(C)(F)c1nc(N)nc(OC2CCN(c3ccccc3)C2=O)n1 (centres unmarked) [Example A55]	very good herbicidal activity	very good herbicidal activity
–	Cc1cc(C)cc(N2CCC(N(C)c3nc(N)nc(C(C)(C)F)n3)C2)c1 (centres unmarked) [Example E50]	very good herbicidal activity	very good herbicidal activity
–	CN(c1nc(N)nc(C(C)(C)F)n1)C1CCN(c2cccc(Cl)c2)C1 (centres unmarked) [Example E55]	very good herbicidal activity	very good herbicidal activity
–	CC(F)c1nc(N)nc(N(C)C2CCN(c3cccc(C(F)(F)F)c3)C2)n1 (centres unmarked) [Example E57]	very good herbicidal activity	very good herbicidal activity
–	CC(F)c1nc(N)nc(N(C)C2CCN(c3cccc(OC(F)(F)F)c3)C2)n1 (centres unmarked) [Example E58]	very good herbicidal activity	very good herbicidal activity
–	Cc1cc(C)cc(N2CCC(N(C)c3nc(N)nc(C(C)F)n3)C2)c1 (centres unmarked) [Example E59]	very good herbicidal activity	very good herbicidal activity
–	CC(F)c1nc(N)nc(N(C)C2CCN(c3cccc(Cl)c3)C2)n1 (centres unmarked) [Example E64]	very good herbicidal activity	very good herbicidal activity
–	CC(C)c1nc(N)nc(N(C)C2CCN(c3cccc(C(F)(F)F)c3)C2)n1 (centres unmarked) [Example E66]	very good herbicidal activity	very good herbicidal activity
–	CC(C)c1nc(N)nc(N(C)C2CCN(c3cccc(OC(F)(F)F)c3)C2)n1 (centres unmarked) [Example E67]	very good herbicidal activity	very good herbicidal activity
–	Cc1cc(C)cc(N2CCC(N(C)c3nc(N)nc(C(C)C)n3)C2)c1 (centres unmarked) [Example E68]	very good herbicidal activity	very good herbicidal activity
–	CC(C)c1nc(N)nc(N(C)C2CCN(c3cccc(Cl)c3)C2)n1 (centres unmarked) [Example E73]	very good herbicidal activity	very good herbicidal activity
–	CC(F)c1nc(N)nc(OC2CCN(C(C)(C)c3cccc(Cl)c3)C2=O)n1 (centres unmarked) [Example F1]	very good herbicidal activity	very good herbicidal activity
–	CC(C)c1nc(N)nc(OC2CCN(C(C)(C)c3cccc(Cl)c3)C2=O)n1 (centres unmarked) [Example F2]	very good herbicidal activity	very good herbicidal activity
–	CC(C)(F)c1nc(N)nc(OC2CCN(C(C)(C)c3cccc(Cl)c3)C2=O)n1 (centres unmarked) [Example F3]	very good herbicidal activity	very good herbicidal activity
